Data reported in patent US6664231B1, “Anti-fungal peptides” (priority 1993, dated 2003).
Square brackets hold non-standard residues; d marks the D form. Peptide text beside a SMILES is read from it. Phe(4-NH2) = Nc1ccc(C[C@H](N)C(=O)O)cc1; 1Nal = N[C@@H](Cc1cccc2ccccc12)C(=O)O

Tested on: C. albicans (CA-1, Strain SLU-1)
Assay: Radial diffusion assay
Type: cell-based, Candida albicans
Settings: HPLC-purified peptide; nanomoles required to achieve a net 30 mm^2 zone (log titration curve)
Protocol: In the radial diffusion assay procedures, the CA-1 cultures and peptide solutions were prepared as in the broth assay procedure described above. Ten mL of molten underlayer agarose comprising 3% Sabouraud Dextrose broth, 1% agarose (Pharmacia, Piscataway, N.J.), 0.02% Tween 20, and 10 mM sodium phosphate at pH 7.4, was added to polystyrene tubes and maintained in a 56° C. water bath until the addition of yeast. Tubes were cooled to approximately 45° C., yeast were added to give a final concentration of 1×10^6 CFU/mL, and the tubes were mixed again by inverting. The contents were poured into level square petri dishes and distributed evenly. […] A series of wells were punched into the hardened agarose using a sterile 3 mm punch attached to a vacuum apparatus.
Peptides to be assayed were 2-fold serially diluted in Dulbecco's PBS (D-PBS) starting from a concentration of approximately 1 mg/mL. Five μL of each dilution were added to each well and the plates were incubated at 37° C. for 3 hours. An overlayer of 10 mL of molten agarose comprising 6% Sabouraud Dextrose broth, 1% agarose, and 10 mM sodium phosphate, pH 7.4, (at approximately 45° C.) was then added and plates were incubated overnight at 37° C. Following this overnight incubation, a dilute Coomassie solution was poured into the plates and allowed to stain for 24 hours.
Clear zones of growth inhibition around each well were measured with calipers. The actual area of growth inhibition (mm^2) was calculated by subtracting the area of the well. Table 1 below sets out the results of the radial diffusion assays for tested peptides in terms of the number of picomoles (pmol) of peptide required to establish a 30 mm^2 area of growth inhibition calculated by PROBIT analysis (e.g., calculated from regression of the linear portion of log-concentration dose-response curve, log pmol/well vs. net area of inhibition).

Compound | Plate Assay (nmol), pure peptide activity
H-WLIQLF-NH2 [compound 316] | inactive

Same assay, conditions: crude peptide; nanomoles required to achieve a net 30 mm^2 zone (log titration curve)

Compound | Plate Assay (nmol), crude peptide activity
H-WLIQLF-NH2 [compound 316] | 11.1 nmol
H-SKVKWL-NH2 [Peptide 312] | >11.20 nmol
H-KVKWLIQ-NH2 [Peptide 306] | >10.485 nmol

Same assay, conditions: pmoles of peptide added to well to achieve a 30 mm^2 zone, PROBIT analysis; crude or purified (P′) peptide

Compound | C. albicans pmol/30 mm^2 zone
CC[C@H](C)[C@H](NC(=O)[C@H](CC(C)C)NC(=O)[C@H](Cc1c[nH]c2ccccc12)NC(=O)[C@H](Cc1ccc(N)cc1)NC(=O)[C@@H](NC(=O)[C@H](CCCCN)NC(=O)[C@H](CO)NC(=O)[C@@H](N)CCCCN)C(C)C)C(=O)N[C@@H](CCC(N)=O)C(=O)N[C@@H](CC(C)C)C(=O)N[C@@H](Cc1ccccc1)C(=O)N[C@@H](Cc1c[nH]cn1)C(=O)N[C@@H](CCCCN)C(=O)N[C@@H](Cc1cccc2ccccc12)C(N)=O [XMP.229] | b (No detectable activity up to 5 μg/well)
XMP.390: 151-161, K @ 151 (V), P @ 152 (G) (SEQ ID NO:221) (KPWLIQLFHKK) | 674 pmol/30 mm^2 zone
H-KSKVGWLISLFHKK-NH2 [XMP.104] | >5569 pmol/30 mm^2 zone
H-KSKVKWLIQLWHKK-NH2 [XMP.124] | 351 pmol/30 mm^2 zone
CC[C@H](C)[C@H](NC(=O)[C@H](CC(C)C)NC(=O)[C@H](Cc1c[nH]c2ccccc12)NC(=O)CNC(=O)[C@@H](NC(=O)[C@H](CCCCN)NC(=O)[C@H](CO)NC(=O)[C@@H](N)CCCCN)C(C)C)C(=O)N[C@@H](Cc1ccc(N)cc1)C(=O)N[C@@H](CC(C)C)C(=O)N[C@@H](Cc1ccccc1)C(=O)N[C@@H](Cc1cccc2ccccc12)C(=O)N[C@@H](CCCCN)C(=O)N[C@@H](CCCCN)C(N)=O [XMP.232] (H-KSKVGWLI[Phe(4-NH2)]LF[1Nal]KK-NH2) | b (No detectable activity up to 5 μg/well)
CC[C@H](C)[C@H](NC(=O)[C@H](CC(C)C)NC(=O)[C@H](Cc1cccc2ccccc12)NC(=O)CNC(=O)[C@@H](NC(=O)[C@H](CCCCN)NC(=O)[C@H](CO)NC(=O)[C@@H](N)CCCCN)C(C)C)C(=O)N[C@@H](CCC(N)=O)C(=O)N[C@@H](CC(C)C)C(=O)N[C@@H](Cc1ccccc1)C(=O)N[C@@H](Cc1c[nH]cn1)C(=O)N[C@@H](CCCCN)C(=O)N[C@@H](Cc1cccc2ccccc12)C(N)=O [XMP.222] (H-KSKVG[1Nal]LIQLFHK[1Nal]-NH2) | >2,610 pmol/30 mm^2 zone
CC[C@H](C)[C@H](NC(=O)[C@H](CC(C)C)NC(=O)[C@H](Cc1c[nH]c2ccccc12)NC(=O)CNC(=O)[C@@H](NC(=O)[C@H](CCCCN)NC(=O)[C@H](CO)NC(=O)[C@@H](N)CCCCN)C(C)C)C(=O)N[C@@H](CCC(N)=O)C(=O)N[C@@H](Cc1cccc2ccccc12)C(=O)N[C@@H](Cc1c[nH]c2ccccc12)C(=O)N[C@@H](Cc1c[nH]cn1)C(=O)N[C@@H](CCCCN)C(=O)N[C@@H](CCCCN)C(N)=O [XMP.237] (H-KSKVGWLIQ[1Nal]WHKK-NH2) | >2,777 pmol/30 mm^2 zone
CC[C@H](C)[C@H](NC(=O)[C@H](CC(C)C)NC(=O)[C@H](Cc1c[nH]c2ccccc12)NC(=O)CNC(=O)[C@@H](NC(=O)[C@H](CCCCN)NC(=O)[C@H](CO)NC(=O)[C@@H](N)CCCCN)C(C)C)C(=O)N[C@@H](Cc1ccc(N)cc1)C(=O)N[C@@H](CC(C)C)C(=O)N[C@@H](Cc1ccccc1)C(=O)N[C@@H](Cc1c[nH]cn1)C(=O)N[C@@H](CCCCN)C(=O)N[C@@H](CCCCN)C(N)=O [XMP.123] (H-KSKVGWLI[Phe(4-NH2)]LFHKK-NH2) | 1721 pmol/30 mm^2 zone
H-IQLFHK-NH2 [XMP.318] | b (No detectable activity up to 5 μg/well)
H-KWLIQLF-NH2 [XMP.308] | b (No detectable activity up to 5 μg/well)
H-KSKVGWLIQLFHKW-NH2 [XMP.108] | >3219 pmol/30 mm^2 zone
H-KSKVGWLIQLFHKA-NH2 [XMP.44] | 578 pmol/30 mm^2 zone
CC[C@H](C)[C@H](NC(=O)[C@H](CC(C)C)NC(=O)[C@@H](N)Cc1c[nH]c2ccccc12)C(=O)N[C@@H](CCC(N)=O)C(=O)N[C@@H](CC(C)C)C(=O)N[C@@H](Cc1ccccc1)C(=O)N[C@@H](Cc1c[nH]cn1)C(=O)N[C@@H](CCCCN)C(=O)N[C@@H](CCCCN)C(N)=O [XMP.298] | 2,628 pmol/30 mm^2 zone
H-KSKVGWLILLWHKK-NH2 [XMP.241] | >2,161 pmol/30 mm^2 zone
H-VKWLIQ-NH2 [XMP.314] | >13,497 pmol/30 mm^2 zone
H-KSKVGWLIQLFHKKKSKVGWLILLFHKK-NH2 [XMP.271] | >1,995 pmol/30 mm^2 zone

Compound | C. albicans pmol/30 mm^2 zone
H-KSKVGWLIQLWHKK-NH2 [XMP.82] | 518 pmol/30 mm^2 zone
CC[C@H](C)[C@H](NC(=O)[C@H](CC(C)C)NC(=O)[C@H](Cc1cccc2ccccc12)NC(=O)CNC(=O)[C@@H](NC(=O)[C@H](CCCCN)NC(=O)[C@H](CO)NC(=O)[C@@H](N)CCCCN)C(C)C)C(=O)N[C@@H](CCC(N)=O)C(=O)N[C@@H](CC(C)C)C(=O)N[C@@H](Cc1ccccc1)C(=O)N[C@@H](Cc1c[nH]cn1)C(=O)N[C@@H](CCCCN)C(=O)N[C@@H](CCCCN)C(N)=O [XMP.83] (H-KSKVG[1Nal]LIQLFHKK-NH2) | 1804 pmol/30 mm^2 zone
H-QLFHKK-NH2 [XMP.319] | b (No detectable activity up to 5 μg/well)
H-SKVKWLIQLF-NH2 [XMP.290] | >2,233 pmol/30 mm^2 zone
CC[C@H](C)[C@H](NC(=O)[C@H](CC(C)C)NC(=O)[C@@H](Cc1ccccc1)NC(=O)CNC(=O)[C@@H](NC(=O)[C@H](CCCCN)NC(=O)[C@H](CO)NC(=O)[C@@H](N)CCCCN)C(C)C)C(=O)N[C@@H](CCC(N)=O)C(=O)N[C@@H](CC(C)C)C(=O)N[C@@H](Cc1ccccc1)C(=O)N[C@@H](Cc1c[nH]cn1)C(=O)N[C@@H](CCCCN)C(=O)N[C@@H](CCCCN)C(N)=O [XMP.128] | 1179 pmol/30 mm^2 zone
CC[C@H](C)[C@H](NC(=O)[C@H](CC(C)C)NC(=O)[C@H](Cc1c[nH]c2ccccc12)NC(=O)[C@H](Cc1ccc(N)cc1)NC(=O)[C@@H](NC(=O)[C@H](CCCCN)NC(=O)[C@H](CO)NC(=O)[C@@H](N)CCCCN)C(C)C)C(=O)N[C@@H](CCC(N)=O)C(=O)N[C@@H](CC(C)C)C(=O)N[C@@H](Cc1ccccc1)C(=O)N[C@@H](Cc1c[nH]cn1)C(=O)N[C@@H](CCCCN)C(=O)N[C@@H](CCCCN)C(N)=O [XMP.134] | 1255 pmol/30 mm^2 zone
CC[C@H](C)[C@H](NC(=O)[C@H](CC(C)C)NC(=O)[C@@H](N)Cc1c[nH]c2ccccc12)C(=O)N[C@@H](CCC(N)=O)C(=O)N[C@@H](CC(C)C)C(=O)N[C@@H](Cc1ccccc1)C(=O)N[C@@H](Cc1c[nH]cn1)C(=O)N[C@@H](CCCCN)C(N)=O [XMP.303] | >4,694 pmol/30 mm^2 zone
CC[C@H](C)[C@H](NC(=O)[C@H](CC(C)C)NC(=O)[C@H](Cc1c[nH]c2ccccc12)NC(=O)[C@@H](N)CCCCN)C(=O)N[C@@H](CCC(N)=O)C(=O)N[C@@H](CC(C)C)C(=O)N[C@@H](CCCCN)C(=O)N[C@@H](CCCCN)C(N)=O [XMP.324] | 894 pmol/30 mm^2 zone
H-KKKWLIQLKKK-NH2 [XMP.350] | 129 pmol/30 mm^2 zone
H-GWLIQLFHKKIESALRNKMNS-NH2 [XMP.55] | >2666 pmol/30 mm^2 zone
H-KSKVGWLIQLFAKK-NH2 [XMP.42] | 548 pmol/30 mm^2 zone
CC[C@H](C)[C@H](NC(=O)[C@H](CC(C)C)NC(=O)[C@H](Cc1cccc2ccccc12)NC(=O)CNC(=O)[C@@H](NC(=O)[C@H](CCCCN)NC(=O)[C@H](CO)NC(=O)[C@@H](N)CCCCN)C(C)C)C(=O)N[C@@H](Cc1ccc(N)cc1)C(=O)N[C@@H](CC(C)C)C(=O)N[C@@H](Cc1ccccc1)C(=O)N[C@@H](Cc1c[nH]cn1)C(=O)N[C@@H](CCCCN)C(=O)N[C@@H](CCCCN)C(N)=O [XMP.224] (H-KSKVG[1Nal]LI[Phe(4-NH2)]LFHKK-NH2) | >2,443 pmol/30 mm^2 zone
H-KSKVFWLIQLFHKK-NH2 [XMP.95] | >1398 pmol/30 mm^2 zone
H-KSKVGWLIQLFWKK-NH2 [XMP.107] | >2796 pmol/30 mm^2 zone
XMP.409: S - K - 153-157 - K - K, A @ 154 (L) (SEQ ID NO:240) (SKWAIQLKK) | 795 pmol/30 mm^2 zone

Same assay, conditions: pmoles of peptide added to well to achieve a 30 mm^2 zone, PROBIT analysis; crude or purified (P′) peptide; listed as XMP.298P′

Compound | C. albicans pmol/30 mm^2 zone
CC[C@H](C)[C@H](NC(=O)[C@H](CC(C)C)NC(=O)[C@@H](N)Cc1c[nH]c2ccccc12)C(=O)N[C@@H](CCC(N)=O)C(=O)N[C@@H](CC(C)C)C(=O)N[C@@H](Cc1ccccc1)C(=O)N[C@@H](Cc1c[nH]cn1)C(=O)N[C@@H](CCCCN)C(=O)N[C@@H](CCCCN)C(N)=O [XMP.298] | 1,106 pmol/30 mm^2 zone

Same assay, conditions: pmoles of peptide added to well to achieve a 30 mm^2 zone, PROBIT analysis; crude or purified (P′) peptide; listed as XMP.303P′

Compound | C. albicans pmol/30 mm^2 zone
CC[C@H](C)[C@H](NC(=O)[C@H](CC(C)C)NC(=O)[C@@H](N)Cc1c[nH]c2ccccc12)C(=O)N[C@@H](CCC(N)=O)C(=O)N[C@@H](CC(C)C)C(=O)N[C@@H](Cc1ccccc1)C(=O)N[C@@H](Cc1c[nH]cn1)C(=O)N[C@@H](CCCCN)C(N)=O [XMP.303] | 1,307 pmol/30 mm^2 zone
